From ChEMBL document CHEMBL3860050, “Triterpenoids from Momordica balsamina: Reversal of ABCB1-mediated multidrug resistance” (Bioorg Med Chem, 2016)

Legend:
[1] = target: T1, ATP-dependent translocase ABCB1 (Homo sapiens, UniProt P08183); test: Inhibition of MDR1-mediated efflux-pump activity in mouse L5178Y cells expressing human MDR1 assessed as side scattered light at 2 uM preincubated for 10 mins followed by rhodamine-123 addition measured after 20 mins by flow cytometry (reference value: 194.6 to 286.4); type: cell-based
[2] = target: T1, ATP-dependent translocase ABCB1; test: Inhibition of MDR1-mediated efflux-pump activity in mouse L5178Y cells expressing human MDR1 assessed as forward scattered light at 20 uM preincubated for 10 mins followed by rhodamine-123 addition measured after 20 mins by flow cytometry (reference value: 455.7 to 509.9); type: cell-based
[3] = target: T1, ATP-dependent translocase ABCB1; test: Inhibition of MDR1-mediated efflux-pump activity in mouse L5178Y cells expressing human MDR1 assessed as fluorescence activity ratio at 2 uM preincubated for 10 mins followed by rhodamine-123 addition measured after 20 mins by flow cytometry; type: cell-based
[4] = target: T1, ATP-dependent translocase ABCB1; test: Inhibition of MDR1-mediated efflux-pump activity in mouse L5178Y cells expressing human MDR1 assessed as mean fluorescence intensity at 2 uM preincubated for 10 mins followed by rhodamine-123 addition measured after 20 mins by flow cytometry (reference value: 7.1 to 18.6); type: cell-based
[5] = Antiproliferative activity against mouse L5178Y cells measured after 72 hrs by MTT assay; type: functional, cell-based
[6] = target: T1, ATP-dependent translocase ABCB1; test: Inhibition of MDR1-mediated efflux-pump activity in mouse L5178Y cells expressing human MDR1 assessed as forward scattered light at 2 uM preincubated for 10 mins followed by rhodamine-123 addition measured after 20 mins by flow cytometry (reference value: 455.7 to 509.9); type: cell-based
[7] = target: T1, ATP-dependent translocase ABCB1; test: Inhibition of MDR1-mediated efflux-pump activity in mouse L5178Y cells expressing human MDR1 assessed as mean fluorescence intensity at 20 uM preincubated for 10 mins followed by rhodamine-123 addition measured after 20 mins by flow cytometry (reference value: 7.1 to 18.6); type: cell-based
[8] = target: T1, ATP-dependent translocase ABCB1; test: Inhibition of MDR1-mediated efflux-pump activity in mouse L5178Y cells expressing human MDR1 assessed as fluorescence activity ratio at 20 uM preincubated for 10 mins followed by rhodamine-123 addition measured after 20 mins by flow cytometry; type: cell-based
[9] = target: T1, ATP-dependent translocase ABCB1; test: Inhibition of MDR1-mediated efflux-pump activity in mouse L5178Y cells expressing human MDR1 assessed as side scattered light at 20 uM preincubated for 10 mins followed by rhodamine-123 addition measured after 20 mins by flow cytometry (reference value: 194.6 to 286.4); type: cell-based
[10] = Antiproliferative activity against mouse L5178Y cells expressing human MDR1 measured after 72 hrs by MTT assay; type: functional, cell-based

T1 sequence (P08183 whole entry): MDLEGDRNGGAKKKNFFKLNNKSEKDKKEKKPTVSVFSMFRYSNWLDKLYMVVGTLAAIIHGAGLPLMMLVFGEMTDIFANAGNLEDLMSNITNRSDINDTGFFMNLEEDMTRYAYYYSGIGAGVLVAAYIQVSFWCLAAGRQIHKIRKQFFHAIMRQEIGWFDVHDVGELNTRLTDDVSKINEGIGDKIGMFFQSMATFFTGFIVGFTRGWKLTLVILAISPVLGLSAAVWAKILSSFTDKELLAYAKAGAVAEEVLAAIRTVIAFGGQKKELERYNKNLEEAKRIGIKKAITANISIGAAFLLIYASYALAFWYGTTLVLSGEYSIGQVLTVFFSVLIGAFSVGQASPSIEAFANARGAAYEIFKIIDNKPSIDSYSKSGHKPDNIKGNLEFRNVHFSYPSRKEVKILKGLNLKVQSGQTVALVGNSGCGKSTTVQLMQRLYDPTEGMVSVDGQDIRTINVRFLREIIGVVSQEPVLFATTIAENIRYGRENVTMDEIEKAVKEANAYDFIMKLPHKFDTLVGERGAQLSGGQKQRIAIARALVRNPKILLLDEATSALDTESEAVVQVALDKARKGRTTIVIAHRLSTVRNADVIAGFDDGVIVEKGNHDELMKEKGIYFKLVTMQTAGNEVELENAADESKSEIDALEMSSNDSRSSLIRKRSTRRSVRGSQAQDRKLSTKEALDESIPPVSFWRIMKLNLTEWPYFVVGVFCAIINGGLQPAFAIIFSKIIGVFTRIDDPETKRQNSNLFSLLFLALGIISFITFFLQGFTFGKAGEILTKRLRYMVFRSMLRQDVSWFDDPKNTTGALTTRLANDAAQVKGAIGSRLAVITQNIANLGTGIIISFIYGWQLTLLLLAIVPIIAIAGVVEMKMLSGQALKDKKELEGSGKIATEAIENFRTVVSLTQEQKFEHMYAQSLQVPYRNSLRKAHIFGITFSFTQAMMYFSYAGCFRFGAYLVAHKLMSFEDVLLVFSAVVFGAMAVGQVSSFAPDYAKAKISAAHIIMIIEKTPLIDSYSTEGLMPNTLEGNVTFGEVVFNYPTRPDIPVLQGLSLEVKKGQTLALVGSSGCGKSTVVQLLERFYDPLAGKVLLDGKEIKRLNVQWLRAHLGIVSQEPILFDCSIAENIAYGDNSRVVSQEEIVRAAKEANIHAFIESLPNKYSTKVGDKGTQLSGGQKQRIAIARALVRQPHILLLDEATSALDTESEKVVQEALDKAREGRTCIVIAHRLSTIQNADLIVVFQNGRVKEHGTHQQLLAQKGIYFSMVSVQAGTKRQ

SMILES | Activity [1] | Activity [2] | Ratio [3] | Flu intensity [4] | IC50 [5] | Activity [6] | Flu intensity [7] | Ratio [8] | Activity [9] | IC50 [10]
CO[C@H]1C=C2[C@@H](CC[C@H](O)C2(C)C)[C@]2(C)CC[C@]3(C)[C@@H]([C@H](C)C[C@H](C=C(C)C)OC(=O)CCC(=O)O)CC[C@@]3(C)[C@H]12 | 184.1 | 540.1 | 1.1 | 7.5 | 20.8 µM | 545.2 | 28 | 4.2 | 185.6 | 40.6 µM
CC(C)=C[C@H](O)C[C@@H](C)[C@H]1CC[C@@]2(C)[C@@H]3C(O[C@H]4O[C@@H](CO)[C@H](O)[C@@H](O)[C@@H]4O)C=C4[C@@H](CC[C@H](O)C4(C)C)[C@]3(C)CC[C@]12C (stereo partly specified) | 235.6 | 573 | 1 | 10.7 | 19.2 µM | 557.9 | 23.6 | 2.3 | 236.9 | 54.2 µM
CC(C)=C[C@H](O)C[C@@H](C)[C@H]1CC[C@@]2(C)[C@@H]3[C@@H](O[C@H]4O[C@@H](CO)[C@H](O)[C@H](O)[C@@H]4O)C=C4[C@@H](CC[C@H](O)C4(C)C)[C@]3(C)CC[C@]12C | 267.4 | 457.9 | 0.9 | 11.5 | 18.7 µM | 443.8 | 487.1 | 37.2 | 277.2 | 42.6 µM
CO[C@H]1C=C2[C@@H](CC[C@H](OC(=O)c3ccccc3)C2(C)C)[C@]2(C)CC[C@]3(C)[C@@H]([C@H](C)C/C=C/C(C)(C)O)CC[C@@]3(C)[C@H]12 | 233.1 | 444.8 | 1 | 17.9 | 108 µM | 454.2 | 140 | 7.8 | 235.1 | 130 µM
CO[C@H]1C=C2[C@@H](CC[C@H](OC(=O)CCC(=O)O)C2(C)C)[C@]2(C)CC[C@]3(C)[C@@H]([C@H](C)C[C@H](C=C(C)C)OC(=O)CCC(=O)O)CC[C@@]3(C)[C@H]12 | 184.6 | 546.7 | 1.3 | 8.2 | 16.9 µM | 545.8 | 39.5 | 5.9 | 187 | 46.9 µM
C=C(C)[C@@H](O)[C@H](O)C[C@@H](C)[C@H]1CC[C@@]2(C)[C@@H]3[C@@H](O)C=C4[C@@H](CC[C@H](O)[C@]4(C)CO)[C@]3(C)CC[C@]12C [BALSAMINAPENTAOL A] | 254.7 | 429 | 0.7 | 8.8 | 13.7 µM | 427.2 | 38.2 | 2.9 | 252 | 29.3 µM
CC(=O)C[C@@H](C)[C@H]1CC[C@@]2(C)[C@@H]3C(=O)C=C4[C@@H](CC[C@H](O)[C@]4(C)CO)[C@]3(C)CC[C@]12C [BALSAMINOL D] | 254.3 | 434.2 | 1 | 10.3 | 27.8 µM | 439.9 | 25.9 | 1.9 | 256.5 | 67.1 µM
CC(C)=C[C@H](O)C[C@@H](C)[C@H]1CC[C@@]2(C)[C@@H]3[C@@H](O)C=C4[C@@H](CC[C@H](O)C4(C)C)[C@]3(C)CC[C@]12C [BALSAMINOL F] | 202.1 | – | 2.6 | 20.1 | 8.3 µM | 490.7 | – | – | – | 20.8 µM
C[C@H](C/C=C/C(C)(C)O)[C@H]1CC[C@@]2(C)[C@@H]3[C@@H](O)C=C4[C@@H](CC[C@H](O)C4(C)C)[C@]3(C)C[C@@H](O)[C@]12C [CUCURBALSAMINOL A] | 254.7 | 429 | 0.7 | 8.8 | 48.2 µM | 427.2 | 38.2 | 2.9 | 252 | 63.4 µM
CCCC(=O)O[C@H]1CC[C@@H]2C(=C[C@H](OC)[C@@H]3[C@@]2(C)CC[C@]2(C)[C@@H]([C@H](C)C[C@H](C=C(C)C)OC(=O)CCC)CC[C@@]32C)C1(C)C [KARAVOATE F] | 218.3 | 541 | 1.4 | 10.8 | 93.2 µM | 542.6 | 12.3 | 1.6 | 218.7 | > 133 µM
CO[C@H]1C=C2[C@@H](CC[C@H](OC(=O)c3ccccc3)C2(C)C)[C@]2(C)CC[C@]3(C)[C@@H]([C@H](C)C[C@H](C=C(C)C)OC(=O)c4ccccc4)CC[C@@]3(C)[C@H]12 [KARAVOATE H] | 200.4 | 519.8 | 1.2 | 9 | > 133 µM | 504.9 | 10.4 | 1.3 | 215.4 | 96.4 µM
CO[C@H]1C=C2[C@@H](CC[C@H](O)C2(C)C)[C@]2(C)CC[C@]3(C)[C@@H]([C@H](C)C[C@H](C=C(C)C)OC(=O)c4ccc([N+](=O)[O-])cc4)CC[C@@]3(C)[C@H]12 [KARAVOATE I] | 184.1 | 534.1 | 2.1 | 14.3 | 29 µM | 537.3 | 25.9 | 3.9 | 182.9 | 60.4 µM
CO[C@H]1C=C2[C@@H](CC[C@H](OC(=O)c3ccc([N+](=O)[O-])cc3)C2(C)C)[C@]2(C)CC[C@]3(C)[C@@H]([C@H](C)C[C@H](C=C(C)C)OC(=O)c4ccc([N+](=O)[O-])cc4)CC[C@@]3(C)[C@H]12 [KARAVOATE J] | 186.3 | 537.3 | 1.4 | 9.5 | 59.4 µM | 543.4 | 14.3 | 2.1 | 184.1 | 87.9 µM
CO[C@H]1C=C2[C@@H](CC[C@H](O)C2(C)C)[C@]2(C)CC[C@]3(C)[C@@H]([C@H](C)C[C@H](C=C(C)C)OC(=O)c4ccc(Cl)cc4)CC[C@@]3(C)[C@H]12 [KARAVOATE K] | 207 | 511.1 | 1.4 | 10.7 | 63.4 µM | 517.9 | 12.2 | 1.6 | 210.8 | 93.2 µM
CO[C@H]1C=C2[C@@H](CC[C@H](OC(=O)c3ccc(Cl)cc3)C2(C)C)[C@]2(C)CC[C@]3(C)[C@@H]([C@H](C)C[C@H](C=C(C)C)OC(=O)c4ccc(Cl)cc4)CC[C@@]3(C)[C@H]12 [KARAVOATE L] | 206.4 | 512.2 | 1 | 8.1 | > 133 µM | 504.6 | 9 | 1.2 | 202.4 | > 133 µM
COc1ccc(C(=O)O[C@@H](C=C(C)C)C[C@@H](C)[C@H]2CC[C@@]3(C)[C@@H]4[C@@H](OC)C=C5[C@@H](CC[C@H](O)C5(C)C)[C@]4(C)CC[C@]23C)cc1 [KARAVOATE M] | 192.3 | 531.9 | 1.8 | 12.3 | 59.4 µM | 526 | 11.4 | 1.7 | 181.8 | 87.5 µM
COc1ccc(C(=O)O[C@H]2CC[C@@H]3C(=C[C@H](OC)[C@@H]4[C@@]3(C)CC[C@]3(C)[C@@H]([C@H](C)C[C@H](C=C(C)C)OC(=O)c5ccc(OC)cc5)CC[C@@]43C)C2(C)C)cc1 [KARAVOATE N] | 184.1 | 548.9 | 0.9 | 6.3 | 74.6 µM | 528.1 | 9.7 | 1.4 | 186.7 | > 133 µM
